Assay type in all cases: functional, Cricetulus griseus
Experiment [1] deals with CHO. Nature of the experiment: The sensitizing capacity for colchicine treatment of multi drug resistance (MDR) CHO cell at concentration 1.0(mg/L).
Experiment [2] relates to CHO. Nature of the experiment: The sensitizing capacity for colchicine treatment of multi drug resistance(MDR) in CHO cell at concentration 0.1(mg/L).
Experiment [3] deals with CHO. The experiment in a line: Sensitization of colchicine treated parental (PAR)CHO cells, measured at concentration 0.1(mg/L).
In experiment [4] the test system is CHO. Nature of the experiment: The sensitizing capacity for colchicine treatment of parental (PAR)CHO cells at concentration 1.0 (mg/L).

Take `C=CCNC(=O)C[C@@H]1C(=O)N(C)[C@@H]([C@@H](C)CC)C(=O)N(C)[C@@H]([C@H](C)CC)C(=O)NCC(=O)N(C)[C@@H](C(C)C)C(=O)N[C@@H](Cc2ccc(OC)cc2)C(=O)O[C@H](C)C(=O)N2CCCC[C@H]2C(=O)N(C)[C@@H](C(C)C)C(=O)N[C@@H](C(C)C)C(=O)N1C`: the Activity in the experiment on CHO [1] stood at 67; with CHO [2], 1.1; in the experiment with CHO [3], 5; in the experiment with CHO [4] it was 9.3.
On to `CC[C@@H](C)[C@H]1C(=O)NCC(=O)N(C)[C@@H](C(C)C)C(=O)N[C@@H](Cc2ccc(OCc3ccccc3)cc2)C(=O)O[C@H](C)C(=O)N2CCCC[C@H]2C(=O)N(C)[C@@H](C(C)C)C(=O)N[C@@H](C(C)C)C(=O)N(C)[C@H](CC(=O)O)C(=O)N(C)[C@@H]([C@@H](C)CC)C(=O)N1C`, for which the Activity in the experiment with CHO [1] came out at 2.1; with CHO [2], 1.3; in the experiment on CHO [3] it was 1.1; with CHO [4] it was 3.9.
On to `CC[C@H](C)[C@H]1C(=O)NCC(=O)N(C)[C@@H](C(C)C)C(=O)N[C@@H](Cc2ccc(OC(C)(C)C)cc2)C(=O)O[C@H](C)C(=O)N2CCCC[C@H]2C(=O)N(C)[C@@H](C(C)C)C(=O)N[C@@H](C(C)C)C(=O)N(C)[C@@H](CC(=O)OC(C)(C)C)C(=O)N(C)[C@@H]([C@@H](C)CC)C(=O)N1C`, for which the Activity stood at 300 in the experiment on CHO [1], 28 with CHO [2], 6.7 with CHO [3] and 9 in the experiment with CHO [4].
Taken in the same sequence, the figures for `CC[C@@H](C)[C@H]1C(=O)N(C)CC(=O)N(C)[C@@H](C(C)C)C(=O)N(C)[C@@H](Cc2ccc(OC)cc2)C(=O)O[C@H](C)C(=O)N2CCCC[C@H]2C(=O)N(C)[C@@H](C(C)C)C(=O)N(C)[C@@H](C(C)C)C(=O)N(C)[C@H](CC(=O)OC(C)(C)C)C(=O)N(C)[C@@H]([C@@H](C)CC)C(=O)N1C` were 24, 1.2, 3.6 and 8.7.
`CC[C@H](C)[C@H]1C(=O)N(C)[C@@H]([C@@H](C)CC)C(=O)NCC(=O)N(C)[C@@H](C(C)C)C(=O)N[C@@H](Cc2ccc(OC)cc2)C(=O)O[C@H](C)C(=O)N2CCCC[C@H]2C(=O)N(C)[C@@H](C(C)C)C(=O)N[C@@H](C(C)C)C(=O)N(C)[C@H](CN(C)C(C=O)C/C=C/C(=O)OC(C)(C)C)C(=O)N1C` (stereo partly drawn): the Activity in the experiment on CHO [1] was determined as 97; in the experiment on CHO [2] it was 19; with CHO [3], 7.6; with CHO [4] it was 8.7.
Regarding `CC[C@H](C)[C@H]1C(=O)NCC(=O)N(C)[C@@H](C(C)C)C(=O)N[C@@H](Cc2ccc(OC)cc2)C(=O)O[C@H](C)C(=O)N2CCCC[C@H]2C(=O)N(C)[C@@H](C(C)C)C(=O)N[C@@H](C(C)C)C(=O)N(C)[C@@H](CC(=O)OC)C(=O)N(C)[C@@H]([C@@H](C)CC)C(=O)N1C`, the Activity in the experiment on CHO [1] stood at 84; in the experiment on CHO [2], 1.9; in the experiment on CHO [3] it was 6.4; in the experiment with CHO [4] it was 8.4.
Regarding `CC[C@@H](C)[C@H]1C(=O)NCC(=O)N(C)[C@@H](C(C)C)C(=O)N[C@@H](Cc2ccc(OC)cc2)C(=O)O[C@H](C)C(=O)N2CCCC[C@H]2C(=O)N(C)[C@@H](C(C)C)C(=O)N[C@@H](C(C)C)C(=O)N(C)[C@H](CC(=O)N2CCCCC2)C(=O)N(C)[C@@H]([C@@H](C)CC)C(=O)N1C`, the Activity in the experiment on CHO [1] worked out at 137; in the experiment on CHO [2], 3.2; in the experiment with CHO [3] it was 7.1; with CHO [4], 10.
Taken in the same sequence, the figures for `CC[C@H](C)[C@H]1C(=O)NCC(=O)N(C)[C@@H](C(C)C)C(=O)N[C@@H](Cc2ccc(OC)cc2)C(=O)O[C@H](C)C(=O)N2CCCC[C@H]2C(=O)N(C)[C@@H](C(C)C)C(=O)N[C@@H](C(C)C)C(=O)N(C)[C@@H](CC(=O)OCC23CC4CC(CC(C4)C2)C3)C(=O)N(C)[C@@H]([C@@H](C)CC)C(=O)N1C` were 6.7, 1, 5.9 and 8.5.
Taken in the same sequence, the figures for `CC[C@@H](C)[C@H]1C(=O)NCC(=O)N(C)[C@@H](C(C)C)C(=O)N[C@@H](Cc2ccc(OC)cc2)C(=O)N[C@@H](C)C(=O)N2CCCC[C@H]2C(=O)N(C)[C@@H](C(C)C)C(=O)N[C@@H](C(C)C)C(=O)N(C)[C@H](CC(=O)OC(C)(C)C)C(=O)N(C)[C@@H]([C@@H](C)CC)C(=O)N1C` were 144, 5.2, 4.6 and 6.2.
In the case of `CC[C@H](C)[C@H]1C(=O)NCC(=O)N(C)[C@@H](C(C)C)C(=O)N[C@@H](Cc2ccc(OC)cc2)C(=O)O[C@H](C)C(=O)N2CCCC[C@H]2C(=O)N(C)[C@@H](C(C)C)C(=O)N[C@@H](C(C)C)C(=O)N(C)[C@@H](CC(=O)NCc2ccco2)C(=O)N(C)[C@@H]([C@@H](C)CC)C(=O)N1C`, the Activity with CHO [1] was 91; in the experiment on CHO [2], 1.6; in the experiment on CHO [3] it was 6.8; with CHO [4] it was 10.
On to `CC[C@H](C)[C@H]1C(=O)NCC(=O)N(C)[C@@H](C(C)C)C(=O)N[C@@H](Cc2ccc(OC)cc2)C(=O)O[C@H](C)C(=O)N2CCCC[C@H]2C(=O)N(C)[C@@H](C(C)C)C(=O)N[C@@H](C(C)C)C(=O)N(C)[C@@H](CC(=O)OC2C3CC4CC(C3)CC2C4)C(=O)N(C)[C@@H]([C@@H](C)CC)C(=O)N1C` (stereo partly drawn), for which the Activity in the experiment on CHO [1] was determined as 29; with CHO [2], 1.1; in the experiment on CHO [3], 3.4; with CHO [4], 6.1.
As for `CC[C@@H](C)[C@H]1C(=O)NCC(=O)N(C)[C@@H](C(C)C)C(=O)N[C@@H](Cc2ccc(OC)cc2)C(=O)O[C@H](C)C(=O)N2CCCC[C@H]2C(=O)N(C)[C@@H](C(C)C)C(=O)N[C@@H](C(C)C)C(=O)N(C)[C@H](CC(=O)N[C@H](CO)C(C)C)C(=O)N(C)[C@@H]([C@@H](C)CC)C(=O)N1C`, the Activity in the experiment on CHO [1] is given as 144; in the experiment on CHO [2] it was 3.2; with CHO [3], 7.6; in the experiment with CHO [4], 9.8.
For `CC[C@H](C)[C@H]1C(=O)NCC(=O)N(C)[C@@H](C(C)C)C(=O)N[C@@H](Cc2ccc(OC)cc2)C(=O)O[C@H](C)C(=O)N2CCCC[C@H]2C(=O)N(C)[C@@H](C(C)C)C(=O)N[C@@H](C(C)C)C(=O)N(C)[C@@H](CC(=O)OCCC(C)(C)C)C(=O)N(C)[C@@H]([C@@H](C)CC)C(=O)N1C`, the Activity in the experiment with CHO [1] was 95; in the experiment on CHO [2] it was 1.9; in the experiment on CHO [3] it was 7.5; in the experiment with CHO [4] it was 8.7.
Taken in the same sequence, the figures for `CC[C@H](C)[C@H]1C(=O)NCC(=O)N(C)[C@@H](C(C)C)C(=O)N[C@@H](Cc2ccc(OC)cc2)C(=O)O[C@H](C)C(=O)N2CCCC[C@H]2C(=O)N(C)[C@@H](C(C)C)C(=O)N[C@@H](C(C)C)C(=O)N(C)[C@@H](CC(=O)OCCC(C)C)C(=O)N(C)[C@@H]([C@@H](C)CC)C(=O)N1C` were 57, 1.3, 5.7 and 7.8.
Turning to `CC[C@@H](C)[C@H]1C(=O)NCC(=O)N(C)[C@@H](C(C)C)C(=O)N[C@@H](Cc2ccc(OC)cc2)C(=O)O[C@@H](C)C(=O)N2CCCC[C@H]2C(=O)N(C)[C@@H](C(C)C)C(=O)N[C@@H](C(C)C)C(=O)N(C)[C@H](CC(=O)NC2CCCCC2)C(=O)N(C)[C@@H]([C@@H](C)CC)C(=O)N1C`, the Activity with CHO [1] was determined as 286; in the experiment with CHO [2], 72.

These data come from ChEMBL document CHEMBL1127553, “Derivatives of a novel cyclopeptolide. 2. Synthesis, activity against multidrug resistance in CHO and KB cells in vitro, and structure-activity relationships” (1994).
